Laboratory results published in patent US12209085B2, “RET inhibitors, pharmaceutical compositions and uses thereof” (SUNSHINE LAKE PHARMA CO., LTD., priority 2018, dated 2025).

What was measured:
Assay type in all cases: biochemical
Settings in all cases: HTRF method
Ret wt = Ret wt (Homo sapiens (Human), UniProt P07949); assay: HTRF kinase inhibition assay, Ret wt
Excerpt: (§1) • 1. […] 1) • 18) Echo (Labcyte, 550) • 3.
(§2) [formula] • Ratiopositive control: average of CEP-32496 readings in all positive control wells • Rationegative control: average of DMSO readings in all negative control wells • Wherein, the chemical name of CEP-32496 is: N-[3-[(6,7-dimethoxy-4-quinazolinyl)oxy]phenyl]-N′-[5-(2,2,2-trifluoro-1,1-dimethylethyl)-3-isoxazolyl]urea. • 4.3 Calculation of the IC50 and Drawing of the inhibition curve of the compound: • The IC50 (half inhibitory concentration) of the compound was obtained using the following non-linear fitting formula: Data analysis was performed using Graphpad 6.0 software. Y=Bottom+(Top−Bottom)/(1+10^((Log IC50−X)*Hill Slope)) • X: compound concentration log value Y: inhibition, % • 5.

Ret V804M = Ret V804M (Homo sapiens (Human), UniProt P07949, V804M); assay: HTRF kinase inhibition assay, Ret V804M
Ret V804M, sequence (P07949 29-1114 V804M): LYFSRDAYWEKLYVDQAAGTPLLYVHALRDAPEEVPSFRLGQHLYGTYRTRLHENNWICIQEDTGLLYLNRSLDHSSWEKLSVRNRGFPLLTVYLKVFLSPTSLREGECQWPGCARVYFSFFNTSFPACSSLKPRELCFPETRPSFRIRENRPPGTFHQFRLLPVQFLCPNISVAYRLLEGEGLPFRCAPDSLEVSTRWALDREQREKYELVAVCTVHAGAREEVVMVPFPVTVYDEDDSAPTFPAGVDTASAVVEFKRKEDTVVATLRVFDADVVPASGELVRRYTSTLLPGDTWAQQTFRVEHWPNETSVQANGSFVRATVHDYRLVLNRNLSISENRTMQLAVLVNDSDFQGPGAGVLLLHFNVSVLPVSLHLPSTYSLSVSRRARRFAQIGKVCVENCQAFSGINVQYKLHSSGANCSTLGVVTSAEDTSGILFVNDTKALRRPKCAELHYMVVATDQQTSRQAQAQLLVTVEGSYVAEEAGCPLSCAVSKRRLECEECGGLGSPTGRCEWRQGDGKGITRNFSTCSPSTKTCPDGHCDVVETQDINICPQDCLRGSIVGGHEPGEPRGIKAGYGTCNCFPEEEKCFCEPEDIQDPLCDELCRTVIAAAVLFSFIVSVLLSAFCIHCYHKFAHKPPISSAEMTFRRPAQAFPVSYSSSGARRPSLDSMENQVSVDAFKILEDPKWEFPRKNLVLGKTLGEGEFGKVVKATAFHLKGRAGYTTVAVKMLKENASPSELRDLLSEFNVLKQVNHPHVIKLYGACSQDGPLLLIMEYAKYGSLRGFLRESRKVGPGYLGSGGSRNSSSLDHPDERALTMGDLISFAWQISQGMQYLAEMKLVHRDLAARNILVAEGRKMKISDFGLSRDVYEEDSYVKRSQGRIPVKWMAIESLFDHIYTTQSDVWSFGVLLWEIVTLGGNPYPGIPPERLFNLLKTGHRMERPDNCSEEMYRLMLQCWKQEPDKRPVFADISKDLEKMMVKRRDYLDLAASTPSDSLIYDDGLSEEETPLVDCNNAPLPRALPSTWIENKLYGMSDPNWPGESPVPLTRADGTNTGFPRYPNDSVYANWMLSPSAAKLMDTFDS
Excerpt: as §1, §2

Ret M918T = Ret M918T (Homo sapiens (Human), UniProt P07949, M918T); assay: HTRF kinase inhibition assay, Ret M918T
Ret M918T, sequence (P07949 29-1114 M918T): as the sequence (P07949 29-1114 V804M) above, with M776V, M890T counted along it
Excerpt: as §1, §2

Ret V804L = Ret V804L (Homo sapiens (Human), UniProt P07949, V804L); assay: HTRF kinase inhibition assay, Ret V804L
Ret V804L, sequence (P07949 29-1114 V804L): as the sequence (P07949 29-1114 V804M) above, with M776L counted along it
Excerpt: as §1, §2

CCDC6-RET = CCDC6-RET (Homo sapiens (Human), UniProt P07949+Q16204); assay: HTRF kinase inhibition assay, CCDC6-RET
CCDC6-RET, sequence (P07949 other isoform, or with tags, fused parts or gaps): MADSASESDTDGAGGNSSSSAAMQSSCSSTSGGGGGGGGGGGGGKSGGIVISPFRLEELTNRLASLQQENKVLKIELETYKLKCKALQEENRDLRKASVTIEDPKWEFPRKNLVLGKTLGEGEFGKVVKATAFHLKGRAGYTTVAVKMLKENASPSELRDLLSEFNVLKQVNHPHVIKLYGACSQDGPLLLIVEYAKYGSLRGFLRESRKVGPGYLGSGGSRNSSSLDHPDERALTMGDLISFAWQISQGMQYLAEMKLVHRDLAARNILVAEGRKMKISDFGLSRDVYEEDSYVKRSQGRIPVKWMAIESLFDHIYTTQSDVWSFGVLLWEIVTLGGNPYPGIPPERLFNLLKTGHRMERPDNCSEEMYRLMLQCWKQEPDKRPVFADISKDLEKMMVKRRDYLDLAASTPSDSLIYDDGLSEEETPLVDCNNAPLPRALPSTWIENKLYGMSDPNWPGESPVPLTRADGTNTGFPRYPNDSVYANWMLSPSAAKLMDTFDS
Excerpt: as §1, §2

Ret wt, sequence (P07949 29-1114): as the sequence (P07949 29-1114 V804M) above, with M776V counted along it

IC50 (Ret wt)	IC50 (Ret V804M)	IC50 (Ret M918T)	IC50 (Ret V804L)	IC50 (CCDC6-RET)	SMILES
0.27 nM	16.6 nM	0.7 nM	0.3 nM	0.8 nM	C#Cc1ccc(C(=O)N2CCN(c3ccc(-c4cc(-c5cnn(C)c5)cn5ncc(C#N)c45)cn3)CC2)cc1 [Example 3, 3-cyano-4-(6-(4-(4-ethynylbenzoyl)piperazin-1-yl)pyridin-3-yl)-6-(1-methyl-1H-pyrazol-4-yl)pyrazolo[1,5-a]pyridine]
0.27 nM	2.3 nM	2.8 nM	0.2 nM	0.6 nM	C#Cc1cccc(C(=O)NC2(C)CCN(c3ccc(-c4cc(-c5cnn(C)c5)cn5ncc(C#N)c45)cn3)CC2)c1 [Example 4, N-(1-(5-(3-cyano-6-(1-methyl-1H-pyrazol-4-yl)pyrazolo[1,5-a]pyridin-4-yl)pyridin-2-yl)-4-methylpiperidin-4-yl)-3-ethynylbenzamide]
0.61 nM	5.53 nM	0.97 nM	0.95 nM	0.87 nM	Cn1cc(-c2cc(-c3ccc(N4CCN(C(=O)C#Cc5ccccc5)CC4)nc3)c3c(C#N)cnn3c2)cn1 [Example 1, 3-cyano-6-(1-methyl-1H-pyrazol-4-yl)-4-(6-(4-(3-phenylpropioloyl)piperazin-1-yl)pyridine-3-yl)pyrazolo[1,5-a]pyridine]
0.72 nM	5.26 nM				COc1cncc(C#CC(=O)N2CCN(c3ccc(-c4cc(-c5cnn(C)c5)cn5ncc(C#N)c45)cn3)CC2)c1 [Example 272, 4-(6-(4-(3-(5-methoxypyridin-3-yl)propioloyl)piperazin-1-yl)pyridin-3-yl)-6-(1-methyl-1H-pyrazol-4-yl)pyrazolo[1,5-a]pyridine-3-carbonitrile]
3.51 nM	37.8 nM				COc1cc(C#CCN2CCN(c3ccc(-c4cc(-c5cnn(C)c5)cn5ncc(C#N)c45)cn3)CC2)ccn1 [Example 243, 4-(6-(4-(3-(2-methoxypyridin-4-yl)prop-2-yn-1-yl)piperazin-1-yl)pyridin-3-yl)-6-(1-methyl-1H-pyrazol-4-yl)pyrazolo[1,5-a]pyridine-3-carbonitrile]
0.57 nM	4.11 nM				Cn1cc(-c2cc(-c3ccc(N4CCN(CC#Cc5cccnc5F)CC4)nc3)c3c(C#N)cnn3c2)cn1 [Example 255, 4-[6-[4-[3-(2-fluoro-3-pyridyl)prop-2-ynyl]piperazin-1-yl]-3-pyridyl]-6-(1-methylpyrazol-4-yl)pyrazolo[1,5-a]pyridine-3-carbonitrile]
3.1 nM	5.1 nM				Cn1cc(-c2cc(-c3ccc(N4CCN(CC#Cc5ccc(F)nc5)CC4)nc3)c3c(C#N)cnn3c2)cn1 [Example 261, 4-[6-[4-[3-(6-fluoro-3-pyridyl)prop-2-ynyl]piperazin-1-yl]-3-pyridyl]-6-(1-methylpyrazol-4-yl)pyrazolo[1,5-a]pyridine-3-carbonitrile]
7.06 nM	198 nM				Cn1cc(-c2cc(-c3ccc(N4CCN(CC#Cc5ccc(C(F)(F)F)cc5)CC4)nc3)c3c(C#N)cnn3c2)cn1 [Example 246, 6-(1-methyl-1H-pyrazol-4-yl)-4-(6-(4-(3-(4-(trifluoromethyl)phenyl)prop-2-yn-1-yl)piperazine-1-yl)pyridin-3-yl)pyrazolo[1,5-a]pyridine-3-carbonitrile]
2.5 nM	31.4 nM				Cn1cc(-c2cc(-c3ccc(N4CCN(CC#Cc5ccncc5)CC4)nc3)c3c(C#N)cnn3c2)cn1 [Example 263, 6-(1-methyl-1H-pyrazol-4-yl)-4-(6-(4-(3-(pyridin-4-yl)prop-2-yn-1-yl)piperazin-1-yl)pyridine-3-yl)pyrazolo[1,5-a]pyridine-3-carbonitrile]
0.62 nM	12.3 nM				C#Cc1cc(C(=O)N2CCN(c3ccc(-c4cc(-c5cnn(C)c5)cn5ncc(C#N)c45)cn3)CC2)ccc1F [Example 239, 4-(6-(4-(3-ethynyl-4-fluorobenzoyl)piperazin-1-yl)pyridin-3-yl)-6-(1-methyl-1H-pyrazol-4-yl)pyrazolo[1,5-a]pyridine-3-carbonitrile]
0.15 nM	1.94 nM				Cn1cc(-c2cc(-c3ccc(N4CCN(CC#Cc5ccccn5)CC4)nc3)c3c(C#N)cnn3c2)cn1 [Example 247, 6-(1-methylpyrazol-4-yl)-4-[6-[4-[3-(2-pyridyl)prop-2-ynyl]piperazin-1-yl]-3-pyridyl]pyrazolo[1,5-a]pyridine-3-carbonitrile]
0.57 nM	21 nM				C#Cc1cccc(CN2CCN(c3ccc(-c4cc(-c5cnn(C)c5)cn5ncc(C#N)c45)cn3)CC2)c1F [Example 224, 4-(6-(4-(3-ethynyl-2-fluorobenzyl)piperazin-1-yl)pyridin-3-yl)-6-(1-methyl-1H-pyrazol-4-yl)pyrazolo[1,5-a]pyridine-3-carbonitrile]
1.63 nM	23 nM				C#Cc1ccc(O[C@H]2CCN(c3ccc(-c4cc(-c5cnn(C(F)F)c5)cn5ncc(C#N)c45)cn3)C2)cn1 [Example 284, (S)-6-(1-(difluoromethyl)-1H-pyrazol-4-yl)-4-(6-(3-((6-ethynylpyridin-3-yl)oxy)pyrrolidin-1-yl)pyridin-3-yl) pyrazolo[1,5-a]pyridine-3-carbonitrile]
3.65 nM	69.6 nM				Cn1cc(-c2cc(-c3ccc(N4CCN(CC#Cc5cncc(C(F)(F)F)c5)CC4)nc3)c3c(C#N)cnn3c2)cn1 [Example 265]

SMILES	IC50 (Ret wt)	IC50 (Ret V804M)	IC50 (Ret M918T)	IC50 (Ret V804L)	IC50 (CCDC6-RET)
COc1ccc(C#CCN2C3CC2CN(c2ccc(-c4cc(-c5cnn(C)c5)cn5ncc(C#N)c45)cn2)C3)cn1 [Example 194, 4-(6-(6-(3-(6-methoxypyridin-3-yl)prop-2-yn-1-yl)-3,6-diazabicyclo[3.1.1]heptane-3-yl)pyridin-3-yl)-6-(1-methyl-1H-pyrazol-4-yl)pyrazolo[1,5-a]pyridin-3-carbonitrile]	0.68 nM	7.07 nM	0.62 nM	0.23 nM	0.26 nM
COc1cncc(C#CCN2C3CC2CN(c2ccc(-c4cc(-c5cnn(C)c5)cn5ncc(C#N)c45)cn2)C3)c1 [Example 215, 4-(6-(6-(3-(5-methoxypyridin-3-yl)prop-2-yn-1-yl)-3,6-diazabicyclo[3.1.1]heptane-3-yl)pyridin-3-yl)-6-(1-methyl-1H-pyrazol-4-yl)pyrazolo[1,5-a]pyridin-3-carbonitrile]	0.16 nM	0.42 nM	0.183 nM	0.06 nM	0.16 nM
C#Cc1cc(C(=O)N2C3CC2CN(c2ccc(-c4cc(-c5cnn(C)c5)cn5ncc(C#N)c45)cn2)C3)ccc1F [Example 233, 4-(6-(6-(3-ethynyl-4-fluorobenzoyl)-3,6-diazabicyclo[3.1.1]heptan-3-yl)pyridin-3-yl)-6-(1-methyl-1H-pyrazol-4-yl)pyrazolo[1,5-a]pyridine-3-carbonitrile]	0.5 nM	8.92 nM			
COc1cncc(C#CC(=O)N2C3CC2CN(c2ccc(-c4cc(-c5cnn(C)c5)cn5ncc(C#N)c45)cn2)C3)c1 [Example 270, 4-(6-(6-(3-(5-methoxypyridin-3-yl)propioloyl)-3,6-diazabicyclo[3.1.1]heptan-3-yl)pyridin-3-yl)-6-(1-methyl-1H-pyrazol-4-yl)pyrazolo[1,5-a]pyridine-3-carbonitrile]	1.1 nM	4.9 nM			
C#Cc1cc(F)c(C(=O)N2C3CC2CN(c2ccc(-c4cc(-c5cnn(C)c5)cn5ncc(C#N)c45)cn2)C3)c(F)c1 [Example 235]	0.4 nM	10 nM			
Cn1cc(-c2cc(-c3ccc(N4CC5CC(C4)N5CC#Cc4ccccn4)nc3)c3c(C#N)cnn3c2)cn1 [Example 244]	0.15 nM	0.27 nM			
